Laboratory results from ChEMBL document CHEMBL1201862, “PubChem BioAssay data set” (2004).
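Following 48 hours of exposure in 96-well plates, responses at five concentrations were used to interpolate endpoints linearly. Here, GI50 denotes the concentration required for 50% inhibition of growth.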 Active and inactive are the calls of the source. Rule as the data show it: active = GI50 up to about 1.1 µM and inactive = higher.

Experiments:
Experiment in all cases: growth of human tumour cells (NCI), 48 h
786-0 = test system: 786-0
A498 = test system: A498
A549 = test system: A549
ACHN = test system: ACHN
BT-549 = test system: BT-549
CAKI-1 = test system: CAKI-1
CCRF-CEM = test system: CCRF-CEM
COLO 205 = test system: COLO 205
DU-145 = test system: DU-145
EKVX = test system: EKVX
HCC 2998 = test system: HCC 2998
HCT-116 = test system: HCT-116
HCT-15 = test system: HCT-15
HL-60 = test system: HL-60
HOP-62 = test system: HOP-62
HT-29 = test system: HT-29
Hs-578T = test system: Hs-578T
IGROV-1 = test system: IGROV-1
K562 = test system: K562
KM12 = test system: KM12
LOX IMVI = test system: LOX IMVI
M14 = test system: M14
MCF7 = test system: MCF7
MDA-MB-231 = test system: MDA-MB-231
MDA-MB-435 = test system: MDA-MB-435
MDA-N = test system: MDA-N
MOLT-4 = test system: MOLT-4
Malme-3M = test system: Malme-3M
NCI-H226 = test system: NCI-H226
NCI-H23 = test system: NCI-H23
NCI-H460 = test system: NCI-H460
NCI-H522 = test system: NCI-H522
NCI/ADR-RES = test system: NCI/ADR-RES
OVCAR-3 = test system: OVCAR-3
OVCAR-4 = test system: OVCAR-4
OVCAR-5 = test system: OVCAR-5
OVCAR-8 = test system: OVCAR-8
PC-3 = test system: PC-3
RPMI-8226 = test system: RPMI-8226
RXF 393 = test system: RXF 393
SF-268 = test system: SF-268
SF-295 = test system: SF-295
SF-539 = test system: SF-539
SK-MEL-28 = test system: SK-MEL-28
SK-MEL-2 = test system: SK-MEL-2
SK-MEL-5 = test system: SK-MEL-5
SK-OV-3 = test system: SK-OV-3
SN12C = test system: SN12C
SNB-19 = test system: SNB-19
SNB-75 = test system: SNB-75
SR = test system: SR
SW-620 = test system: SW-620
T47D = test system: T47D
TK-10 = test system: TK-10
U-251 = test system: U-251
UACC-257 = test system: UACC-257
UACC-62 = test system: UACC-62
UO-31 = test system: UO-31
HOP-92 = test system: HOP-92

Measured: GI50

O[C@H]1[C@H]2c3cc4c(cc3CN3CCC(=C[C@@H]1O)[C@H]23)OCO4 [LYCORINE]
active: ACHN 0.849 µM | IGROV-1 0.332 µM | LOX IMVI 0.971 µM | MCF7 0.201 µM | NCI-H522 1.05 µM | RXF 393 0.3 µM | SF-268 0.802 µM | SK-MEL-2 0.376 µM | UACC-257 0.65 µM
1.33 µM: HCT-15
inactive: 786-0 3.1 µM | A498 2.96 µM | A549 1.39 µM | BT-549 1.66 µM | CAKI-1 1.24 µM | CCRF-CEM 1.82 µM | COLO 205 1.25 µM | DU-145 1.32 µM | EKVX 2.39 µM | HCC 2998 2.33 µM | HCT-116 1.26 µM | HL-60 2.14 µM | HOP-62 1.78 µM | HT-29 1.46 µM | Hs-578T 2.91 µM | K562 1.2 µM | KM12 2.7 µM | M14 1.86 µM | MDA-MB-231 1.65 µM | MDA-MB-435 2.07 µM | MDA-N 2.59 µM | MOLT-4 1.29 µM | Malme-3M 1.92 µM | NCI-H226 2.76 µM | NCI-H23 2.42 µM | NCI-H460 1.26 µM | NCI/ADR-RES 2.31 µM | OVCAR-3 2.47 µM | OVCAR-4 1.34 µM | OVCAR-5 2.5 µM | OVCAR-8 1.53 µM | PC-3 1.45 µM | RPMI-8226 2.01 µM | SF-295 2.69 µM | SF-539 1.8 µM | SK-MEL-28 2.7 µM | SK-MEL-5 1.42 µM | SK-OV-3 1.84 µM | SN12C 1.7 µM | SNB-19 2.11 µM | SNB-75 3.13 µM | SR 1.47 µM | SW-620 2.61 µM | T47D 2.49 µM | TK-10 2.67 µM | U-251 1.99 µM | UACC-62 2.08 µM | UO-31 1.47 µM

O=C(C(=O)N1CCc2ccccc21)c1c[nH]c2ccccc12
inactive: 786-0 > 10 µM | A549 > 10 µM | ACHN > 10 µM | BT-549 > 10 µM | CAKI-1 > 10 µM | CCRF-CEM > 10 µM | COLO 205 > 10 µM | DU-145 > 10 µM | EKVX > 10 µM | HCC 2998 > 10 µM | HCT-116 > 10 µM | HL-60 > 10 µM | HOP-62 > 10 µM | HOP-92 > 10 µM | HT-29 > 10 µM | Hs-578T > 10 µM | IGROV-1 > 10 µM | K562 > 10 µM | KM12 > 10 µM | LOX IMVI > 10 µM | M14 > 10 µM | MCF7 > 10 µM | MDA-MB-231 > 10 µM | MDA-MB-435 > 10 µM | MDA-N > 10 µM | MOLT-4 > 10 µM | Malme-3M > 10 µM | NCI-H226 > 10 µM | NCI-H23 > 10 µM | NCI-H460 > 10 µM | NCI-H522 > 10 µM | NCI/ADR-RES > 10 µM | OVCAR-3 > 10 µM | OVCAR-4 > 10 µM | OVCAR-5 > 10 µM | OVCAR-8 > 10 µM | PC-3 > 10 µM | RPMI-8226 > 10 µM | RXF 393 > 10 µM | SF-268 > 10 µM | SF-295 > 10 µM | SF-539 > 10 µM | SK-MEL-28 > 10 µM | SK-MEL-2 > 10 µM | SK-MEL-5 > 10 µM | SK-OV-3 > 10 µM | SN12C > 10 µM | SNB-19 > 10 µM | SNB-75 > 10 µM | SR > 10 µM | SW-620 > 10 µM | T47D > 10 µM | TK-10 > 10 µM | U-251 > 10 µM | UACC-257 > 10 µM | UACC-62 > 10 µM | UO-31 > 10 µM
> 10 µM: HCT-15

Cn1c(N/N=C/c2ccc(Cl)cc2)nc(-c2ccc(Cl)cc2)c(C#N)c1=O
inactive: 786-0 15.3 µM | A498 32.1 µM | A549 17.8 µM | ACHN 61.5 µM | BT-549 21.8 µM | CAKI-1 47 µM | CCRF-CEM 25.4 µM | COLO 205 47 µM | DU-145 22.5 µM | EKVX 25.6 µM | HCT-116 13.5 µM | HL-60 44.7 µM | HOP-62 12 µM | HOP-92 22.3 µM | HT-29 41.1 µM | Hs-578T 30.3 µM | IGROV-1 6.73 µM | K562 > 100 µM | KM12 22.6 µM | LOX IMVI 25.2 µM | M14 20 µM | MCF7 21.1 µM | MDA-MB-231 22.4 µM | MDA-MB-435 29.9 µM | MDA-N 53.2 µM | MOLT-4 44.7 µM | Malme-3M 24.2 µM | NCI-H23 18.7 µM | NCI-H460 27 µM | NCI-H522 10.9 µM | NCI/ADR-RES > 100 µM | OVCAR-3 16.4 µM | OVCAR-4 23.8 µM | OVCAR-5 23.8 µM | OVCAR-8 14.6 µM | PC-3 26.8 µM | RPMI-8226 33.3 µM | RXF 393 22.8 µM | SF-268 35.4 µM | SF-295 17.5 µM | SF-539 21.8 µM | SK-MEL-28 37.8 µM | SK-MEL-2 10.5 µM | SK-MEL-5 45.1 µM | SK-OV-3 > 100 µM | SN12C 44.1 µM | SNB-19 > 100 µM | SNB-75 25.3 µM | SR 2.26 µM | SW-620 31 µM | T47D > 100 µM | TK-10 29 µM | U-251 29.9 µM | UACC-257 72.3 µM | UACC-62 22 µM | UO-31 16 µM
31.1 µM: HCT-15

CC(=O)OC1=NN=C2COC(c3ccccc3OC(C)=O)=NN2C1
inactive: 786-0 24.4 µM | A549 > 50 µM | ACHN > 50 µM | BT-549 > 50 µM | CAKI-1 > 50 µM | CCRF-CEM > 50 µM | COLO 205 40.1 µM | DU-145 > 50 µM | EKVX > 50 µM | HCC 2998 > 50 µM | HCT-116 > 50 µM | HL-60 > 50 µM | HOP-62 > 50 µM | HOP-92 > 50 µM | HT-29 39 µM | Hs-578T 24 µM | IGROV-1 > 50 µM | K562 > 50 µM | KM12 31.5 µM | LOX IMVI 24.1 µM | M14 16.7 µM | MCF7 > 50 µM | MDA-MB-231 > 50 µM | MDA-MB-435 > 50 µM | MDA-N > 50 µM | Malme-3M 27.2 µM | NCI-H23 > 50 µM | NCI-H460 > 50 µM | NCI-H522 > 50 µM | NCI/ADR-RES > 50 µM | OVCAR-3 > 50 µM | OVCAR-4 > 50 µM | OVCAR-5 > 50 µM | PC-3 20.1 µM | RPMI-8226 > 50 µM | RXF 393 > 50 µM | SF-268 34.8 µM | SF-295 > 50 µM | SF-539 > 50 µM | SK-MEL-28 21.9 µM | SK-MEL-2 36.2 µM | SK-MEL-5 9.75 µM | SK-OV-3 > 50 µM | SN12C > 50 µM | SNB-19 > 50 µM | SNB-75 15.8 µM | SR > 50 µM | SW-620 > 50 µM | T47D > 50 µM | TK-10 > 50 µM | U-251 > 50 µM | UACC-257 20.4 µM | UACC-62 28.1 µM | UO-31 38.2 µM
> 50 µM: HCT-15
